The record followed here is patent US20260176254A1, “INHIBITORS OF PROSTATE SPECIFIC MEMBRANE ANTIGEN AND USE THEREOF” (SHANGHAI SINOTAU BIOTECH. CO., LTD, priority 2023, published 2026).

One test deals with LNCaP cells. Kind of test: Cell uptake assay of 177Lu-labeled compound. It counts as cell-based. Particulars: for Membrane (%): cell membrane fraction; for Intracellular (%): intracellular fraction. As to the method:
LNCaP (ATCC) cells were cultured in RPMI 1640 medium (Gibco) containing 10% fetal bovine serum (FBS) (Gibco), in 5% carbon dioxide (CO2), at 37.0° C. in a humidified incubator. 2×10^5 LNCaP cells/well were seeded in a 24-well plate the day before experiment. 7.4 KBq (200 nCi) of ^177Lu-labeled compound was added into each well, and then incubated in 37° C., 5% CO2 incubator for varying durations. At each time point, the supernatant, cell membrane and intracellular fractions were collected. The cell membrane fraction was recovered by incubating cells with buffer containing 50 mM glycine and 100 mM NaCl, pH 2.7 for 10 minutes at 37° C., while the intracellular fraction was recovered from cells treated with 1M NaOH. Activity of ^177Lu-labelled compound in every component was detected by gamma counter.

Test [1] has as its target T1, recombinant human PSMA (rhPSMA) (Homo sapiens, UniProt Q04609).
T1 construct: purchased Sino Biological
Kind of test: Naaladase assay (fluorescence-based Naaladase activity inhibition). Type of test: biochemical. Conditions: rhPSMA 0.4 μg/mL, substrate N-Acetyl-Asp-Glu 40 μM, 37° C. one hour. On the procedure:
Naaladase activity inhibition was determined using a fluorescence-based assay. Briefly, the solution containing the substrate N-Acetyl-Asp-Glu (Sigma-Aldrich) at 40 μM and the compound at concentrations from 0.15 nM to 1000 nM was mixed at equal volume with recombinant human PSMA (rhPSMA, Sino Biological) at 0.4 μg/mL, in assay buffer (50 mM HEPES, 100 mM NaCl, pH 7.5). The enzymatic reaction was proceeded by incubation at 37° C. for one hour and then stopped by heating at 95° C. for 5 minutes. A solution of 15 mM ortho-phthaldialdehyde (Sigma-Aldrich) was added to all vials and incubated for 10 min at ambient temperature. The reaction solutions were loaded onto a 96-well flat clear bottom black microplates (Corning) and read at excitation and emission wavelengths of 330 and 450 nm, respectively, using a microplate reader (Tecan). The data were analyzed by a one-site total binding regression algorithm of GraphPad Prism (GraphPad Software).

T1 sequence (Q04609 whole entry): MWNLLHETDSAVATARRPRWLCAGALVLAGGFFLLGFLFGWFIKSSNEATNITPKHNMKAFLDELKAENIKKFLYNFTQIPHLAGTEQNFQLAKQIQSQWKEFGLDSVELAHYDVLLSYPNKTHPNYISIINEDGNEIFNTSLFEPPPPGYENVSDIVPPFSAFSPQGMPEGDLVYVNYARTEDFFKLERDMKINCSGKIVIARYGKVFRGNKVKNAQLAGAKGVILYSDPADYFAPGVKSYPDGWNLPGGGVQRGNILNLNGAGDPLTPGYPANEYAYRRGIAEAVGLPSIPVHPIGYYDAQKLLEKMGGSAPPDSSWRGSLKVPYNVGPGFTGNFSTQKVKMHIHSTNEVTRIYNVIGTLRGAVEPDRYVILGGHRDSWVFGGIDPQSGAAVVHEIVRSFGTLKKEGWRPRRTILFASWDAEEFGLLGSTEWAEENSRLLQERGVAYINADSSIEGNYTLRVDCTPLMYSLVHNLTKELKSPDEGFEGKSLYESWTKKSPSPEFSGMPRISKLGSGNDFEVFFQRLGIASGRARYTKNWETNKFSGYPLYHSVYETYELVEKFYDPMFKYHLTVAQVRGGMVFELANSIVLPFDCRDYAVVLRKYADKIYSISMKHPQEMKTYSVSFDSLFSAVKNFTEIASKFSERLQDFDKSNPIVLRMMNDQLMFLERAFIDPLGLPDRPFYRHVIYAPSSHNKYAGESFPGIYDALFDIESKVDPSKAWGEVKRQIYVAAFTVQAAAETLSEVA

As usually defined, the IC50 is the midpoint of a concentration-inhibition curve. In the case of `O=C(O)CC[C@H](NC(=O)N[C@@H](CCCCNC(=O)[C@H](Cc1ccc2ccccc2c1)Nc1c(NC23CCC(CNC(=O)CN4CCN(CC(=O)O)CCN(CC(=O)O)CCN(CC(=O)O)CC4)(CC2)CC3)c(=O)c1=O)C(=O)O)C(=O)O` [E1, (((S)-1-carboxy-5-((S)-2-((3,4-dioxo-2-((4-((2-(4,7,10-tris(carboxymethyl)-1,4,7,10-tetraazacyclododecan-1-yl)acetamido)methyl)bicyclo[2.2.2]octan-1-yl)amino)cyclobut-1-en-1-yl)amino)-3-(naphthalen-2-yl)propanamido)pentyl)carbamoyl)-L-glutamic acid], the “Membrane (%)” value in the test with LNCaP cells (1 hr) amounted to 3.4%; in the test on LNCaP cells (4 hr), 5.6%; in the test on LNCaP cells (24 hr), 7.1%. In addition, the “Intracellular (%)” value in the test on LNCaP cells (1 hr) came to 3.0%; in the test on LNCaP cells (4 hr) it was 9.9%; in the test with LNCaP cells (24 hr), 24.8%. Besides, in test [1], the IC50 was 3.3 nM.
Take `O=C(O)CN1CCN(CC(=O)O)CCN(CC(=O)N[C@H]2CC[C@H](Nc3c(N[C@@H](Cc4c5ccccc5cc5ccccc45)C(=O)NCCCC[C@H](NC(=O)N[C@@H](CNC(=O)C(=O)O)C(=O)O)C(=O)O)c(=O)c3=O)CC2)CCN(CC(=O)O)CC1` [E12]: the “Membrane (%)” value was 11.1% in the test on LNCaP cells (1 hr), 18.0% in the test with LNCaP cells (4 hr) and 12.7% in the test on LNCaP cells (24 hr). Moreover, the entries for the “Intracellular (%)” value in the test on LNCaP cells (1 hr), with LNCaP cells (4 hr) and in the test with LNCaP cells (24 hr) were 7.3%, 24.3% and 41.4%, respectively. Further, the IC50 in test [1] amounted to 0.9 nM.
For the compound `O=C(O)CN1CCN(CC(=O)O)CCN(CC(=O)NC23CCC(Nc4c(N[C@@H](Cc5c6ccccc6cc6ccccc56)C(=O)NCCCC[C@H](NC(=O)N[C@@H](CNC(=O)C(=O)O)C(=O)O)C(=O)O)c(=O)c4=O)(CC2)CC3)CCN(CC(=O)O)CC1` [E8], the “Membrane (%)” value was 4.8% in the test on LNCaP cells (1 hr), 12.8% in the test on LNCaP cells (4 hr) and 7.3% in the test with LNCaP cells (24 hr). Besides, the “Intracellular (%)” value in the test on LNCaP cells (1 hr) was found to be 11.5%; with LNCaP cells (4 hr), 39.0%; in the test with LNCaP cells (24 hr), 77.9%. For the same compound, the IC50 in test [1] is 1.6 nM.
As to `O=C(O)CCC[C@H](NC(=O)N[C@@H](CCCCNC(=O)[C@H](Cc1c2ccccc2cc2ccccc12)Nc1c(Nc2ccc3c(c2)CCN(C(=O)CN2CCN(CC(=O)O)CCN(CC(=O)O)CCN(CC(=O)O)CC2)C3)c(=O)c1=O)C(=O)O)C(=O)O` [E14], the figures for the “Membrane (%)” value in the test on LNCaP cells (1 hr), in the test with LNCaP cells (4 hr) and in the test with LNCaP cells (24 hr) were 9.7%, 14.8% and 12.9%, respectively. Further, the “Intracellular (%)” value stood at 7.9% with LNCaP cells (1 hr), 25.1% in the test on LNCaP cells (4 hr) and 49.5% in the test with LNCaP cells (24 hr). In test [1], the IC50 came out at 1.7 nM.
On to `O=C(O)CC[C@H](NC(=O)N[C@@H](CCCCNC(=O)[C@H](Cc1c2ccccc2cc2ccccc12)Nc1c(NC23CCC(NC(=O)CN4CCN(CC(=O)O)CCN(CC(=O)O)CCN(CC(=O)O)CC4)(CC2)CC3)c(=O)c1=O)C(=O)O)C(=O)O` [E15], for which the “Membrane (%)” value in the test with LNCaP cells (1 hr) is given as 14.1%; in the test with LNCaP cells (4 hr), 27.3%; in the test with LNCaP cells (24 hr) it was 23.8%. For the same compound, the “Intracellular (%)” value in the test on LNCaP cells (1 hr) was 9.6%; in the test with LNCaP cells (4 hr), 30.4%; in the test with LNCaP cells (24 hr), 58.4%. For the same compound, the IC50 in test [1] is 0.8 nM.
Regarding `O=C(O)CN1CCN(CC(=O)O)CCN(CC(=O)NCC23CCC(Nc4c(N[C@@H](Cc5c6ccccc6cc6ccccc56)C(=O)NCCCC[C@H](NC(=O)N[C@@H](CNC(=O)C(=O)O)C(=O)O)C(=O)O)c(=O)c4=O)(CC2)CC3)CCN(CC(=O)O)CC1` [E3, (4S,8S,15S)-16-(anthracen-9-yl)-15-((3,4-dioxo-2-((4-((2-(4,7,10-tris(carboxymethyl)-1,4,7,10-tetraazacyclododecan-1-yl)acetamido)methyl)bicyclo[2.2.2]octan-1-yl)amino)cyclobut-1-en-1-yl)amino)-1,6,14-trioxo-2,5,7,13-tetraazahexadecane-1,4,8-tricarboxylic acid], the results for the “Membrane (%)” value in the test with LNCaP cells (1 hr), in the test on LNCaP cells (4 hr) and in the test on LNCaP cells (24 hr) were 4.0%, 6.8% and 8.8%, respectively. In addition, the “Intracellular (%)” value in the test on LNCaP cells (1 hr) is 14.7%; in the test on LNCaP cells (4 hr) it was 44.2%; in the test with LNCaP cells (24 hr), 73.3%. In addition, the IC50 in test [1] came out at 1.2 nM.
In the case of `O=C(O)CCC[C@H](NC(=O)N[C@@H](CCCCNC(=O)[C@H](Cc1c2ccccc2cc2ccccc12)Nc1c(NC23CCC(NC(=O)CN4CCN(CC(=O)O)CCN(CC(=O)O)CCN(CC(=O)O)CC4)(CC2)CC3)c(=O)c1=O)C(=O)O)C(=O)O` [E4, (S)-2-(3-((S)-5-((S)-3-(anthracen-9-yl)-2-((3,4-dioxo-2-((4-(2-(4,7,10-tris(carboxymethyl)-1,4,7,10-tetraazacyclododecan-1-yl)acetamido)bicyclo[2.2.2]octan-1-yl)amino)cyclobut-1-en-1-yl)amino)propanamido)-1-carboxypentyl)ureido)hexanedioic acid], the “Membrane (%)” value worked out at 6.4% in the test with LNCaP cells (1 hr), 12.8% with LNCaP cells (4 hr) and 13.0% in the test with LNCaP cells (24 hr). Moreover, the “Intracellular (%)” value in the test on LNCaP cells (1 hr) came out at 7.2%; with LNCaP cells (4 hr), 23.0%; with LNCaP cells (24 hr), 57.4%. Further, the IC50 in test [1] was 1.4 nM.
For `O=C(O)CN1CCN(CC(=O)O)CCN(Cc2nnc([C@H]3CC[C@H](Nc4c(N[C@@H](Cc5c6ccccc6cc6ccccc56)C(=O)NCCCC[C@H](NC(=O)N[C@@H](CNC(=O)C(=O)O)C(=O)O)C(=O)O)c(=O)c4=O)CC3)o2)CCN(CC(=O)O)CC1` [E10], the “Membrane (%)” value was 7.1% in the test on LNCaP cells (1 hr), 10.5% in the test with LNCaP cells (4 hr) and 11.0% in the test with LNCaP cells (24 hr). For the same compound, the “Intracellular (%)” value in the test with LNCaP cells (1 hr) came out at 16.9%; in the test on LNCaP cells (4 hr) it was 50.2%; in the test on LNCaP cells (24 hr), 76.7%. The IC50 in test [1] stood at 1.7 nM.
In the case of `O=C(O)CN1CCN(CC(=O)O)CCN(Cc2nnc(C34CCC(Nc5c(N[C@@H](Cc6c7ccccc7cc7ccccc67)C(=O)NCCCC[C@H](NC(=O)N[C@@H](CNC(=O)C(=O)O)C(=O)O)C(=O)O)c(=O)c5=O)(CC3)CC4)o2)CCN(CC(=O)O)CC1` [E9], the “Membrane (%)” value was determined as 5.0% with LNCaP cells (1 hr), 9.7% in the test on LNCaP cells (4 hr) and 10.1% in the test on LNCaP cells (24 hr). In addition, the entries for the “Intracellular (%)” value in the test on LNCaP cells (1 hr), in the test with LNCaP cells (4 hr) and with LNCaP cells (24 hr) were 12.4%, 40.4% and 72.0%, respectively. The IC50 in test [1] is 1 nM.
On to `O=C(O)CN1CCN(CC(=O)O)CCN(CC(=O)NC23CCC(Nc4cc(N[C@@H](Cc5c6ccccc6cc6ccccc56)C(=O)NCCCC[C@H](NC(=O)N[C@@H](CNC(=O)C(=O)O)C(=O)O)C(=O)O)ncn4)(CC2)CC3)CCN(CC(=O)O)CC1` [E22, (4S,8S,15S)-16-(anthracen-9-yl)-1,6,14-trioxo-15-((6-((4-(2-(4,7,10-tris(carboxymethyl)-1,4,7,10-tetraazacyclododecan-1-yl)acetamido)bicyclo[2.2.2]octan-1-yl)amino)pyrimidin-4-yl)amino)-2,5,7,13-tetraazahexadecane-1,4,8-tricarboxylic acid], for which, in test [1], the IC50 was determined as 4.9 nM.
The same measure, in the same setting: under `O=C(O)CC[C@H](NC(=O)N[C@@H](CCCCNC(=O)C(Cc1ccc2ccccc2c1)Nc1nnc(C23CCC(CNC(=O)CN4CCN(CC(=O)O)CCN(CC(=O)O)CCN(CC(=O)O)CC4)(CC2)CC3)o1)C(=O)O)C(=O)O` (single isomer, unassigned) [E17] stands 3.5 nM.
